Data on 30 molecules can be found in patent publication US10167279B2 (NOVARTIS AG, priority 2014, dated 2019).

For this experiment, the target named is C-Raf FL (Homo sapiens (Human), UniProt P04049, Y340E/Y341E). The experiment can be described thus: In vitro Raf activity determination (Alpha Screen, phospho-MEK), C-Raf FL (full length, Y340E/Y341E). It is filed as biochemical. The following applies: ATP 1 μM; 60 min pre-incubation; 1 hour reaction; column head does not say FL or TR. In short, it runs like this: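 Read-out is AlphaScreen luminescence using rabbit anti-p-MEK with protein A beads after EDTA stop, with IC50 fitted by non-linear regression. Reaction: Sf9-derived C-Raf plus biotinylated E. coli MEK1 K97R substrate, pH 7.5 Tris/MgCl2/DTT buffer, compound preincubated 60 min at room temperature.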
C-Raf FL, sequence (P04049 whole entry Y340E/Y341E): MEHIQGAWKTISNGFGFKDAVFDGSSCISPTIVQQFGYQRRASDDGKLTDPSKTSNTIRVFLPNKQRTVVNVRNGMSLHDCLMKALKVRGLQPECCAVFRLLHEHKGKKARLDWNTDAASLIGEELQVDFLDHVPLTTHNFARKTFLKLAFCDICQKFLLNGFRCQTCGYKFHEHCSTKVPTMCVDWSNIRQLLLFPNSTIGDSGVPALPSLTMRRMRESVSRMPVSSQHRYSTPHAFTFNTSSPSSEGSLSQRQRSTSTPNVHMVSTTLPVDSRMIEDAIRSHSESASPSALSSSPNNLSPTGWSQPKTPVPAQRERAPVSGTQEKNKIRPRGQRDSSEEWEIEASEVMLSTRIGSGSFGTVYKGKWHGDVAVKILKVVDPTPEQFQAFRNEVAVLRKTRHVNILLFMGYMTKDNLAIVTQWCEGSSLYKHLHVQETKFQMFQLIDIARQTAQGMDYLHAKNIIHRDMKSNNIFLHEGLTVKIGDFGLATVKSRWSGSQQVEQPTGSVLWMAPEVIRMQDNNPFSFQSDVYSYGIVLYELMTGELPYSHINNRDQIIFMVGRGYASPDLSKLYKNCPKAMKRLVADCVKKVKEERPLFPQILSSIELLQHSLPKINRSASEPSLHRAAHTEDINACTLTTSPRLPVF
C-Raf FL, sequence (P63104 whole entry partner): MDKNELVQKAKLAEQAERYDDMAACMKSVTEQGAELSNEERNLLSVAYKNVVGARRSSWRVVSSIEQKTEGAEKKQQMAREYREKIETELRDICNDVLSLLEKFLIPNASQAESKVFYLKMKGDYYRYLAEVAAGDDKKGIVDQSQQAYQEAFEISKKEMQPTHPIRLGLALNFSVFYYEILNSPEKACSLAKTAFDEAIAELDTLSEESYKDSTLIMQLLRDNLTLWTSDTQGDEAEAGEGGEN
Turning to `Cc1ccc(NC(=O)c2ccnc(C(F)(F)F)c2)cc1-c1cc2c(c(C3CCOCC3)c1)NC(=O)C(C)(CO)O2` (stereo not drawn) [Example 242, N-(3-(2-(hydroxymethyl)-2-methyl-3-oxo-5-(tetrahydro-2H-pyran-4-yl)-3,4-dihydro-2H-benzo[b][1,4]oxazin-7-yl)-4-methylphenyl)-2-(trifluoromethyl) isonicotinamide], it took 0.1 nM to reach half-maximal inhibition (IC50).

In the case of `Cc1ccc(NC(=O)c2ccnc(C(C)(F)F)c2)cc1-c1cc(OCCO)nc(C2CCOCC2O)c1` (stereo not drawn) [Example 243, 2-(1,1-difluoroethyl)-N-(3-(2-(2-hydroxyethoxy)-6-(3-hydroxytetrahydro-2H-pyran-4-yl)pyridin-4-yl)-4-methylphenyl) isonicotinamide], the IC50 (as a rule, the concentration that inhibits the measured activity by half) was 1 nM.

`Cc1ccc(NC(=O)c2ccnc(C(C)(C)F)c2)cc1-c1cc(OCCO)nc(C2CCOCC2O)c1` (stereo not drawn) [Example 244, 2-(2-fluoropropan-2-yl)-N-(3-(2-(2-hydroxyethoxy)-6-(3-hydroxytetrahydro-2H-pyran-4-yl)pyridin-4-yl)-4-methylphenyl) isonicotinamide] yielded an IC50 of 3 nM.

For the molecule `Cc1ccc(NC(=O)c2cnnc(C(F)(F)F)c2)cc1-c1cc(OCCO)nc(C2CCOCC2O)c1` (stereo not drawn) [Example 245], the IC50 worked out at 1 nM.

With `Cc1ccc(NC(=O)c2ccnc(C(C)(C)C#N)c2)cc1-c1cc(OCCO)nc(C2CCOCC2O)c1` (stereo not drawn) [Example 246], the IC50 was 6 nM.

For `Cc1ccc(NC(=O)c2cc(C(F)(F)F)ccn2)cc1-c1cc(OCCO)nc(C2CCOCC2O)c1` (stereo not drawn) [Example 247], it took 0.4 nM to reach half-maximal inhibition (IC50).

`Cc1ccc(NC(=O)c2cc(C(F)(F)F)c[nH]c2=O)cc1-c1cc(OCCO)nc(C2CCOCC2)c1` [Example 252, N-(3-(2-(2-hydroxyethoxy)-6-(terahydro-2H-pyran-4-yl)pyridin-4-yl)-4-methylphenyl)-2-oxo-5-(trifluoromethyl)-1,2-dihydropyridine-3-carboxamide] registered an IC50 of 4 nM.

For `Cc1ccc(NC(=O)c2cc(C(F)(F)F)cn(C)c2=O)cc1-c1cc(OCCO)nc(C2CCOCC2)c1` [Example 253, N-(3-(2-(2-hydroxyethoxy)-6-(terahydro-2H-pyran-4-yl)pyridin-4-yl)-4-methylphenyl)-1-methyl-2-oxo-5-(trifluoromethyl)-1,2-dihydropyridine-3-carboxamide], the midpoint of inhibition, the IC50, lay at 0.1 nM.

`Cc1ccc(NC(=O)c2ccnc(C(F)(F)F)n2)cc1-c1cc(OCCO)nc(C2CCOCC2)c1` [Example 254, N-(3-(2-(2-hydroxyethoxy)-6-(terahydro-2H-pyran-4-yl)pyridin-4-yl)-4-methylphenyl)-2-(trifluoromethyl) pyrimidine-4-carboxamide] came in with an IC50 of 0.3 nM.

`Cc1ccc(NC(=O)c2cc3cnccc3nc2C(F)(F)F)cc1-c1cc(OCCO)nc(C2CCOCC2)c1` [Example 255, N-(3-(2-(2-hydroxyethoxy)-6-(terahydro-2H-pyran-4-yl)pyridin-4-yl)-4-methylphenyl)-2-(trifluoromethyl)-1,6-naphthyridine-3-carboxamide] came in with an IC50 of 0.2 nM.

Regarding `Cc1ccc(NC(=O)c2cc(C(C)(C)C)nc(O)n2)cc1-c1cc(OCCO)nc(C2CCOCC2)c1` [Example 256, 6-(tert-butyl)-2-hydroxy-N-(3-(2-(2-hydroxyethoxy)-6-(tetrahydro-2H-pyran-4-yl)pyridin-4-yl)-4-methylphenyl)pyrimidine-4-carboxamide], inhibition was half-maximal at 0.1 nM (IC50).

Molecule `Cc1ccc(NC(=O)c2cc(C(F)(F)F)nc(N(C)C)n2)cc1-c1cc(OCCO)nc(C2CCOCC2)c1` [Example 257, 2-(dimethylamino)-N-(3-(2-(2-hydroxyethoxy)-6-(tetrahydro-2H-pyran-4-yl)pyridin-4-yl)-4-methylphenyl)-6-(trifluoromethyl) pyrimidine-4-carboxamide] showed an IC50 of 1 nM.

For `Cc1ccc(NC(=O)c2cc(C(F)(F)F)cnn2)cc1-c1cc(OCCO)nc(C2CCOCC2)c1` [Example 258, N-(3-(2-(2-hydroxyethoxy)-6-(tetrahydro-2H-pyran-4-yl)pyridin-4-yl)-4-methylphenyl)-5-(trifluoromethyl) pyridazine-3-carboxamide], 0.02 nM corresponded to half-maximal inhibition (IC50).

On to `Cc1ccc(NC(=O)c2ccnc(C3(C(F)(F)F)CC3)c2)cc1-c1cc(OCCO)nc(C2CCOCC2)c1` [Example 259, N-(3-(2-(2-hydroxyethoxy)-6-(tetrahydro-2H-pyran-4-yl)pyridin-4-yl)-4-methylphenyl)-2-(1-(trifluoromethyl)cyclopropyl) isonicotinamide], for which half-maximal inhibition (IC50) required 0.3 nM.

Turning to `Cc1ccc(NC(=O)c2cc(C(F)(F)F)ncn2)cc1-c1cc(OCCO)nc(C2CCOCC2)c1` [Example 260, N-(3-(2-(2-hydroxyethoxy)-6-(tetrahydro-2H-pyran-4-yl)pyridin-4-yl)-4-methylphenyl)-6-(trifluoromethyl) pyrimidine-4-carboxamide], the IC50 was found to be 0.08 nM.

`Cc1ccc(NC(=O)c2cc(Cl)ccn2)cc1-c1cc(OCCO)nc(C2CCOCC2)c1` [Example 261, 4-chloro-N-(3-(2-(2-hydroxyethoxy)-6-(tetrahydro-2H-pyran-4-yl)pyridin-4-yl)-4-methylphenyl) picolinamide] registered a concentration for half-maximal inhibition (IC50) of 0.03 nM.

For `Cc1ccc(NC(=O)c2cnc(C(F)(F)F)cn2)cc1-c1cc(OCCO)nc(C2CCOCC2)c1` [Example 262, N-(3-(2-(2-hydroxyethoxy)-6-(tetrahydro-2H-pyran-4-yl)pyridin-4-yl)-4-methylphenyl)-5-(trifluoromethyl) pyrazine-2-carboxamide], the IC50 worked out at 1 nM.

On to `Cc1ccc(NC(=O)c2ccnc(C#N)c2)cc1-c1cc(OCCO)nc(C2CCOCC2)c1` [Example 263, 2-cyano-N-(3-(2-(2-hydroxyethoxy)-6-(tetrahydro-2H-pyran-4-yl)pyridin-4-yl)-4-methylphenyl) isonicotinamide], for which the IC50 was determined as 0.2 nM.

With `Cc1ccc(NC(=O)c2ccnc(Cl)c2)cc1-c1cc(OCCO)nc(C2CCOCC2)c1` [Example 264, 2-chloro-N-(3-(2-(2-hydroxyethoxy)-6-(tetrahydro-2H-pyran-4-yl)pyridin-4-yl)-4-methylphenyl) isonicotinamide], the IC50 came out at 0.2 nM.

As for `Cc1ccc(NC(=O)c2cncc(C(F)(F)F)c2)cc1-c1cc(OCCO)nc(C2CCOCC2)c1` [Example 265, N-(3-(2-(2-hydroxyethoxy)-6-(tetrahydro-2H-pyran-4-yl)pyridin-4-yl)-4-methylphenyl)-5-(trifluoromethyl) nicotinamide], the midpoint of inhibition, the IC50, lay at 0.1 nM.

Turning to `Cc1ccc(NC(=O)c2cc(C(F)(F)F)c(Cl)cn2)cc1-c1cc(OCCO)nc(C2CCOCC2)c1` [Example 266, 5-chloro-N-(3-(2-(2-hydroxyethoxy)-6-(tetrahydro-2H-pyran-4-yl)pyridin-4-yl)-4-methylphenyl)-4-(trifluoromethyl) picolinamide], the half-inhibitory concentration (IC50) stood at 2 nM.

In turn, `COc1cc(C(=O)Nc2ccc(C)c(-c3cc(OCCO)nc(C4CCOCC4)c3)c2)ncn1` [Example 267, N-(3-(2-(2-hydroxyethoxy)-6-(tetrahydro-2H-pyran-4-yl)pyridin-4-yl)-4-methylphenyl)-6-methoxypyrimidine-4-carboxamide] yielded an IC50 of 0.005 nM.

`Cc1ccc(NC(=O)c2ccnc(C(F)(F)CF)c2)cc1-c1cc(OCCO)nc(C2CCOCC2)c1` [Example 268, N-(3-(2-(2-hydroxyethoxy)-6-(tetrahydro-2H-pyran-4-yl)pyridin-4-yl)-4-methylphenyl)-2-(1,1,2-trifluoroethyl) isonicotinamide] came in with an IC50 of 0.02 nM.

Consider `Cc1ccc(NC(=O)c2ccnc(C(C)(F)F)c2)cc1-c1cc(OCCO)nc(C2CCOCC2)c1` [Example 269, 2-(1,1-difluoroethyl)-N-(3-(2-(2-hydroxyethoxy)-6-(tetrahydro-2H-pyran-4-yl)pyridin-4-yl)-4-methylphenyl) isonicotinamide], for which the midpoint of inhibition, the IC50, lay at 0.03 nM.

The molecule `Cc1ccc(NC(=O)c2ccnc(C(C)(C)C#N)c2)cc1-c1cc(OCCO)nc(C2CCOCC2)c1` [Example 270, 2-(2-cyanopropan-2-yl)-N-(3-(2-(2-hydroxyethoxy)-6-(tetrahydro-2H-pyran-4-yl)pyridin-4-yl)-4-methylphenyl) isonicotinamide] had an IC50 of 0.09 nM.

Molecule `Cc1ccc(NC(=O)c2cnnc(C(F)(F)F)c2)cc1-c1cc(OCCO)nc(C2CCOCC2)c1` [Example 271, N-(3-(2-(2-hydroxyethoxy)-6-(tetrahydro-2H-pyran-4-yl)pyridin-4-yl)-4-methylphenyl)-6-(trifluoromethyl) pyridazine-4-carboxamide] had an IC50 of 0.02 nM.

Molecule `Cc1ccc(NC(=O)c2cc(C(F)(F)F)ccn2)cc1-c1cc(OCCO)nc(C2CCOCC2)c1` [Example 272, N-(3-(2-(2-hydroxyethoxy)-6-(tetrahydro-2H-pyran-4-yl)pyridin-4-yl)-4-methylphenyl)-4-(trifluoromethyl) picolinamide] gave an IC50 of 0.05 nM.

As for `Cc1ccc(NC(=O)c2ccnc(C(F)(F)CF)c2)cc1-c1cc(OC[C@H](O)CO)nc(C2CCOCC2)c1` [Example 273, (R)-N-(3-(2-(2,3-dihydroxypropoxy)-6-(tetrahydro-2H-pyran-4-yl)pyridin-4-yl)-4-methylphenyl)-2-(1,1,2-trifluoroethyl) isonicotinamide], it took 0.01 nM to reach half-maximal inhibition (IC50).

For the molecule `Cc1ccc(NC(=O)c2cc(C(F)(F)F)cnn2)cc1-c1cc(OC[C@H](O)CO)nc(C2CCOCC2)c1` [Example 274], the midpoint of inhibition, the IC50, lay at 0.03 nM.

Regarding `Cc1ccc(NC(=O)c2ccnc(C3(C(F)(F)F)CC3)c2)cc1-c1cc(OC[C@H](O)CO)nc(C2CCOCC2)c1` [Example 275, (R)-N-(3-(2-(2,3-dihydroxypropoxy)-6-(tetrahydro-2H-pyran-4-yl)pyridin-4-yl)-4-methylphenyl)-2-(1-(trifluoromethyl)cyclopropyl) isonicotinamide], the midpoint of inhibition, the IC50, lay at 0.2 nM.
